Results published in patent US20130133650A1, “GAS-BASED TREATMENT FOR INFECTIVE DISEASE” (priority 2010, published 2013).

Test system: M. tuberculosis H37Rv

| Compound | effect on viability / lethality (words, FIG. 1) |
| --- | --- |
| Carbon dioxide | only a slight lethal effect |
| [HH] [hydrogen] | as effective as Bioblend |
